Data: patent US20230365563A1, “QUINAZOLINE COMPOUND AND APPLICATION THEREOF” (SHANGHAI PHARMACEUTICALS HOLDING CO., LTD., priority 2020, published 2023)
Where a name gives a salt, the structure may show the parent alone.

Tests used:
KRAS_WT and SOS1 = molecular target: T1, KRAS_WT and SOS1 (Homo sapiens, UniProt P01116); assay: Inhibition of KRAS_WT/SOS1 binding (Cisbio binding kit, 665/615 ratio), Effect Embodiment C; conditions: read-out: GTP-KRAS-WT:SOS1 IC50
T1 construct: purchased
In short: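 Compounds tested as 3-fold, 11-point dilutions in duplicate at 1% DMSO final against the KRAS_WT/SOS1 binding system. IC50 derived by nonlinear regression fit.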

KRAS_G12D and cRAF = molecular target: T2, KRAS_G12D and cRAF (Homo sapiens, UniProt P01116, G12D); assay: Inhibition of KRAS_G12D/cRAF binding (Cisbio binding kit, 665/615 ratio), Effect Embodiment B; conditions: read-out: GTP-KRAS-G12D:CRAF IC50
T2 construct: purchased
In short: (§1)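 Duplicate wells received an eleven-point, threefold compound titration whose top point was the stock solution; final DMSO 1%.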

KRAS-G12D and SOS1 = molecular target: T3, KRAS-G12D and SOS1 (Homo sapiens, UniProt P01116, G12D); assay: Inhibition of KRAS-G12D/SOS1 binding (Cisbio binding kit, 665/615 ratio), Effect Embodiment A; conditions: read-out: GTP-KRAS-G12D:SOS1 IC50
T3 construct: purchased
In short: as §1

T1 sequence (P01116 1-188 isoform P01116-2): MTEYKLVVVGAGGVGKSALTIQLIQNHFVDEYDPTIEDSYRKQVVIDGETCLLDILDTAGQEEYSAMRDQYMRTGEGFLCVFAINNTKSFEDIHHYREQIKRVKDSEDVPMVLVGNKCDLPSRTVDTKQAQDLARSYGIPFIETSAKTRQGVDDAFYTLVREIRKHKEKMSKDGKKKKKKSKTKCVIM
T2 sequence (P01116 1-188 isoform P01116-2 G12D): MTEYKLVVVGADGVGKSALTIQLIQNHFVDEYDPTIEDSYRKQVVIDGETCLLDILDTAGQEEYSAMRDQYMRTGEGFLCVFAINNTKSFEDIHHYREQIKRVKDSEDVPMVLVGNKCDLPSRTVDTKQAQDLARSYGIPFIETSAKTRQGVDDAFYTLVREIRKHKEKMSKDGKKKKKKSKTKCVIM
T3 sequence (P01116 1-188 isoform P01116-2 G12D): as above

Row | SMILES | IC50 (KRAS_WT and SOS1) | IC50 (KRAS_G12D and cRAF) | IC50 (KRAS-G12D and SOS1)
1 | CN(C)CC(C)(C)COc1nc(N2CC3CCC(C2)N3)c2cc(Cl)c(-c3cc(O)cc4ccccc34)c(F)c2n1 (single isomer, unassigned) [Compound 118, 4-((S or R)-4-((1R,5S)-3,8-diazabicyclo[3.2.1]octan-3-yl)-6-chloro-2-(3-(dimethylamino)-2,2-dimethylpropoxy)-8-fluoroquinazolin-7-yl)naphthalen-2-ol dihydrochloride] | 2410 nM | 53.7 nM | 19.5 nM
2 | Oc1cc(-c2c(Cl)cc3c(N4CC5CCC(C4)N5)nc(OCCN4C5CCC4COC5)nc3c2F)c2ccccc2c1 (single isomer, unassigned) [Compound 124, 4-((7S or R)-2-(2-(3-oxa-8-azabicyclo[3.2.1]octan-8-yl)-ethoxy)-4-((1R,5S)-3,8-diazabicyclo[3.2.1]octan-3-yl)-6-chloro-8-fluoroquinazolin-7-yl)naphthalen-2-ol dihydrochloride] | 2890 nM | 149 nM | 75.8 nM
3 | Oc1cc(Cl)c(C2CC2)c(-c2c(Cl)cc3c(N4CC5CCC(C4)N5)nc(OC[C@@]45CCCN4C[C@H](F)C5)nc3c2F)c1 (single isomer, unassigned) [Compound 198b, 3-((S or R)-4-((1R,5S)-3,8-diazabicyclo[3.2.1]octan-3-yl)-6-choro-8-fluoro-2-((2R,7aS)-2-fluorotetrahydro-1H-pyrrolin-7a(5H)-yl)methoxy)quinazolin-7-yl)-5-chloro-4-cyclopropylphenol formate] | 105 nM | 38.5 nM | 54.1 nM
4 | C[C@@H](COc1nc(N2CC3CCC(C2)N3)c2cc(Cl)c(-c3cc(O)cc4ccccc34)c(F)c2n1)CN1CCOC[C@H]1C (single isomer, unassigned) [Compound 239, 4-((S or R)-4-((1R,5S)-3,8-diazacyclo[3.2.1]octyl-3-yl)-6-chloro-8-fluoro-2-((R)-2-methyl-3-((R)-3-methylmorpholinyl)propoxy)quinazolin-7-yl)naphthalen-2-ol formate] | 496 nM | 18.3 nM | 15.3 nM
5 | CC(C)(COc1nc(N2CC3CCC(C2)N3)c2cc(Cl)c(-c3cc(O)cc4ccccc34)c(F)c2n1)CN1C2CCC1COC2 (single isomer, unassigned) [Compound 120, 4-((7S or R)-2-(3-(3-oxa-8-azabicyclo[3.2.1]octan-8-yl)-2,2-dimethylpropoxy)-4-((1R,5S)-3,8-diazabicyclo[3.2.1]octan-3-yl)-6-chloro-8-fluoroquinazolin-7-yl)naphthalen-2-ol dihydrochloride] | 2670 nM | 72.7 nM | 36.5 nM
6 | C[C@@H](COc1nc(N2CC3CCC(C2)N3)c2cc(Cl)c(-c3cc(O)cc4ccccc34)c(F)c2n1)CN1CCO[C@@H](C)C1 (single isomer, unassigned) [Compound 247, 4-((S or R)-4-((1R,5S)-3,8-diazacyclo[3.2.1]octan-3-yl)-6-chloro-8-fluoro-2-((R)-2-methyl-3-((S)-2-methylmorpholinyl)propoxy)quinazolin-7-yl)naphthalen-2-ol formate] | 944 nM | 28.5 nM | 13.3 nM
7 | CC1OCCN(CCCOc2nc(N3CC4CCC(C3)N4)c3cc(Cl)c(-c4cc(O)cc5ccccc45)c(F)c3n2)C1C (single isomer, unassigned) [Compound 265a, 4-((R or S)-4-((1R,5S)-3,8-diazabicyclo[3.2.1]octan-3-yl)-6-chloro-2-(3-((2R or 2S, 3S or 3R)-2,3-dimethylmorpholinyl)propoxy)-8-fluoroquinazolin-7-yl)naphthalen-2-ol diformate] | 5830 nM | 286 nM | 91.2 nM
8 | CN1CCC[C@@]1(C)COc1nc(N2CC3CCC(C2)N3)c2cnc(-c3cc(O)cc4ccccc34)c(F)c2n1 [Compound 136, 4-(4-((1R,5S)-3,8-diazabicyclo[3.2.1]octan-3-yl)-2-((S)-1,2-methylpyrrolidin-2-yl)methoxy)-8-fluoropyridinyl[4,3-d]pyrimidin-7-yl)naphthalen-2-ol diformate] | 1160 nM | 67.5 nM | 30.7 nM
9 | CCC(COc1nc(N2CC3CCC(C2)N3)c2cc(Cl)c(-c3cc(O)cc4ccccc34)c(F)c2n1)CN1C2CCC1COC2 (single isomer, unassigned) [Compound 201b, (4S or 4R)-4-(2-((2S or 2R)-2-(3-oxa-8-azabicyclo[3.2.1]octan-8-ylmethyl)butoxy)-4-((1R,5S)-3,8-diazabicyclo[3.2.1]octan-3-yl)-6-chloro-8-fluoroquinazolin-7-yl)naphthalen-2-ol formate] | 2180 nM | 45.8 nM | 54.6 nM
10 | CNCCCOc1nc(N2CC3CCC(C2)N3)c2cc(Cl)c(-c3cc(O)cc4ccccc34)c(F)c2n1 (single isomer, unassigned) [Compound 93, 4-((S or R)-4-((1R,5S)-3,8-diazabicyclo[3.2.1]octan-3-yl)-6-chloro-8-fluoro-2-(3-(methylamino)propoxy)quinazolin-7-yl)naphthalen-2-ol dihydrochloride] | 2030 nM | 82.1 nM | 12.3 nM
11 | C[C@@H](COc1nc(N2CC3CCC(C2)N3)c2cc(Cl)c(-c3cc(O)cc4ccccc34)c(F)c2n1)CN1CCO[C@H](C)C1 (single isomer, unassigned) [Compound 242, 4-((S or R)-4-((1R,5S)-3,8-diazacyclo[3.2.1]octan-3-yl)-6-chloro-8-fluoro-2-((R)-2-methyl-3-((R)-2-methylmorpholinyl)propoxy)quinazolin-7-yl)naphthalen-2-ol formate] | 731 nM | 23.3 nM | 13.7 nM
12 | N=C(N)NCCCOc1nc(N2CC3CCC(C2)N3)c2cc(Cl)c(-c3cc(O)cc4ccccc34)c(F)c2n1 (single isomer, unassigned) [Compound 150, 1-(3-((4-((1R,5S)-3,8-diazabicyclo[3.2.1]octan-3-yl)-6-chloro-8-fluoro-7-((S or R)-3-hydroxynaphthalen-1-yl)quinazolin-2-yl)oxy)propyl)guanidine diformate] | 2040 nM | 114 nM | 39.2 nM
13 | Oc1cc(-c2c(Cl)cc3c(N4CC5CCC(C4)N5)nc(OCCCN4CCC5(CC4)COC5)nc3c2F)c2ccccc2c1 (single isomer, unassigned) [Compound 262, 4-((S or R)-2-(3-(2-oxa-7-azaspiro[3.5]nonan-7-yl)propoxy)-4-((1R,5S)-3,8-diazacyclo[3.2.1]octan-3-yl)-6-chloro-8-fluoroquinazolin-7-yl)naphthalen-2-ol diformate] | 1660 nM | 141 nM | 24.3 nM
14 | CN1CC2(CC2)C[C@H]1COc1nc(N2C[C@H]3CC[C@@H](C2)N3)c2cc(Cl)c(-c3cc(O)cc4ccccc34)c(F)c2n1 (single isomer, unassigned) [Compound 167, (R or S)-4-(4-((1R,5S)-3,8-diazabicyclo[3.2.1]octan-3-yl)-6-chloro-8-fluoro-2-(((S)-5-methyl-5-azaspiro[2.4]heptan-6-yl)methoxy)quinazolin-7-yl)naphthalen-2-ol dihydrochloride] | 248 nM | 19.5 nM | 17.9 nM
15 | CC(C)CN(C)CCCOc1nc(N2C[C@H]3CC[C@@H](C2)N3)c2cc(Cl)c(-c3cc(O)cc4ccccc34)c(F)c2n1 (single isomer, unassigned) [Compound 115, 4-((S or R)-4-((1R,5S)-3,8-diazacyclo[3.2.1]octan-3-yl)-6-chloro-8-fluoro-2-(3-(isobutyl(methyl)amino)propoxy)quinazolin-7-yl)naphthalen-2-ol dihydrochloride] | 4130 nM | 130 nM | 67.8 nM
16 | CCc1c(F)ccc2cc(O)cc(-c3c(F)cc4c(N5CC6CCC(C5)N6)nc(OC[C@H](C)CN5C6CCC5COC6)nc4c3F)c12 (single isomer, unassigned) [Compound 229a, 4-((7S or 7R)-2-((2R)-3-(3-oxa-8-azabicyclo[3.2.1]octan-8-yl)-2-methylpropoxy)-4-((1R,5S)-3,8-diazabicyclo[3.2.1]octan-3-yl)-6,8-difluoroquinazolin-7-yl)-5-ethyl-6-fluoronaphththalen-2-ol formate] | 160 nM | 11.8 nM | 16.4 nM
17 | Oc1cc(-c2c(Cl)cc3c(N4CC5CCC(C4)N5)nc(OCCCN4CC5CCC4CO5)nc3c2F)c2ccccc2c1 (single isomer, unassigned) [Compound 187a, (R or S)-4-(2-(3-((1S,4S or 1R,4R)-2-oxa-5-azabicyclo[2.2.2]octan-5-yl)propoxy)-4-((1R,5S)-3,8-diazabicyclo[3.2.1]octan-3-yl)-6-chloro-8-fluoroquinazolin-7-yl)naphthalen-2-ol diformate] | 1350 nM | 66.2 nM | 27.4 nM
18 | CN(C)C(=O)OCC1CCC2(COc3nc(N4CC5CCC(C4)N5)c4cc(Cl)c(-c5cc(O)cc6ccccc56)c(F)c4n3)CCCN12 (single isomer, unassigned) [Compound 232a] | 10.3 nM | 7.79 nM | 13.7 nM
19 | Oc1cc(-c2c(Cl)cc3c(N4CC5CCC(C4)N5)nc(OCC45CCCN4CCC5)nc3c2F)c2ccccc2c1 (single isomer, unassigned) [Compound 58a, 4-((S or R)-4-((1R,5S)-3,8-diazabicyclo[3.2.1]octan-3-yl)-6-chloro-8-fluoro-2-((tetrahydro-1H-pyrrolin-7a(5H)-yl)methoxy)quinazolin-7-yl)naphthalen-2-o1] | 47.2 nM | 12.6 nM | 20.4 nM
